Laboratory results published in patent US20060024699A1, “Method for evaluating a substance capable of effecting on endoplasmic reticulum stress-and/or amyloid beta-induced apoptosis” (priority 2004, published 2006).

Assays:
Assay type in all cases: cell-based, human
[1] = tested on: pro-caspase-4; experiment: Cleavage of pro-caspase-4 in SK-N-SH cells treated with apoptosis inducers (Western blotting); conditions: tunicamycin 1 μg/ml, thapsigargin 0.5 μM, etoposide 100 μM for 16 or 24 hours, staurosporine 0.1 μM for 8 hours
Procedure: SK-N-SH cells were treated with various kinds of apoptosis inducers such as tunicamycin (manufactured by SIGMA), thapsigargin (manufactured by SIGMA), etoposide (manufactured by SIGMA), staurosporine (manufactured by SIGMA), UV and the like, to evaluate change in caspase-4. Specifically, SK-N-SH cells were treated either with exposure to an endoplasmic reticulum stress inducer, tunicamycin (1 μg/ml) or thapsigargin (0.5 μM), exposure to a non-endoplasmic reticulum stress inducer, etoposide (100 μM) or staurosporine (0.1 μM), or irradiated with 150 J/m2 UV, in α-MEM (manufactured by Invitrogen) containing 10% by weight of fetal bovine serum, at 37° C. under 5% by volume of CO2. Here, the exposures to tunicamycin, thapsigargin and etoposide were 16 or 24 hours, exposure to staurosporine was 8 hours, and UV irradiation was 8 hours.
(§1) Thereafter, the cells obtained were washed with phosphate buffered saline, and then harvested. The resulting cells were lysed in TNE buffer (composition: 10 mM Tris-HCl, pH 7.8, 1 mM EDTA, 150 mM NaCl, 1 mM phenylmethylsulphonyl fluoride) containing 0.5% by weight of NP-40 (trade name: Nonidet P-40), to give a cell extract. Equal amount of a cell extract (corresponding to 15 μg of protein) was subjected to 12% by weight SDS-PAGE. After the SDS-PAGE, proteins on the gel were transferred to a PVDF membrane (manufactured by Millipore). The membrane was blocked with 5% by weight of bovine serum albumin (BSA). The resulting membrane was incubated with a primary antibody (anti-caspase-4 antibody, anti-caspase-3 antibody, anti-caspase-7 antibody or anti-β-actin antibody), and thereafter incubated with a horseradish peroxidase (HRP)-conjugated secondary antibody. Thereafter, caspase-4, caspase-3, caspase-7 or β-actin was detected with trade name: ECL detection system (manufactured by Amersham-Pharmacia).

[2] = tested on: caspase-4; experiment: Cleavage of caspase-4 in SK-N-SH cells treated with amyloid-β peptides (Western blotting); conditions: 25 μM Aβ25-35, 5 μM Aβ1-40, 25 μM Aβ35-25, 5 M Aβ40-1
Procedure: as §1, with “Amersham-Pharmacia). […]” for “Amersham-Pharmacia).”
SK-N-SH cells were incubated in α-MEM (manufactured by Invitrogen) containing 10% by weight of fetal bovine serum, at 37° C. under 5% by volume of CO2, with 25 μM Aβ25-35, 5 μM Aβ1-40, 25 μM Aβ35-25, or 5 M Aβ40-1. Caspase-4, caspase-7 or β-actin in the cell extract was then detected in the same manner as described above.

[3] = tested on: SK-N-SH cell; experiment: Nuclear morphological changes (Hoechst33342) after tunicamycin in vector-transfected SK-N-SH cells; conditions: tunicamycin 1 μg/ml for 30 hours
Procedure: (§2) SK-N-SH cells were stably transfected with pCAGGS-hBcl-2 (Iwahashi, H. et al., Nature, 390, 413-417 (1997), all teachings of which are incorporated herein by reference) by a conventional method. The resulting cells were then cultured in αMEM (manufactured by Invitrogen) containing 10% by weight of fetal bovine serum, at 37° C. under 5% by volume of CO2 to overexpress Bcl-2. Similarly, HeLa cells were stably transfected with pCAGGS-hBcl-2. The resulting cells were then cultured in DMEM (manufactured by Invitrogen) containing 10% by weight of fetal bovine serum, at 37° C. under 5% by volume of CO2 for 48 hours to overexpress Bcl-2. Here, SK-N-SH cells and HeLa cells were stably transfected with trade name: pCAGGS (Hitoshi Niwa et al., Gene, 108, 193-200 (1991), all teachings of which are incorporated herein by reference) as controls, in the same manner as described above, respectively.
(§3) In addition, each of the transfectants was treated with tunicamycin (1 μg/ml) for 30 hours, stained with Hoechst33342, and observed by fluorescence microscopy.

[4] = tested on: HeLa cell; experiment: Nuclear morphological changes (Hoechst33342) after tunicamycin in vector-transfected HeLa cells; conditions: tunicamycin 1 μg/ml for 30 hours
Procedure: as §2, §3

[5] = tested on: SK-N-SH cells; experiment: Thapsigargin-induced cell death assessed by morphological changes in SK-N-SH cells; conditions: untransfected SK-N-SH cells; 0.5 μM thapsigargin for 40 hours
Procedure: In the same manner as described above, cellular morphological changes of SK-N-SH cells treated with various apoptosis inducers were evaluated by phase contrast microscopy. SK-N-SH cells treated in the same manner were stained with 10 μM Hoechst 33342. Nuclear morphological changes of stained cells were evaluated by fluorescence microscopy. Cell death was detected by using as an index cellular morphological changes and nuclear morphological changes. At least 500 cells were counted. The data was expressed as the mean ±SEM from three independent experiments and P values were calculated by Student's t-test.
SK-N-SH cell was transfected at 50% of confluence with 1.0 μg of the siRNA in 24-well plastic plates (manufactured by Nunc) containing αMEM (manufactured by Invitrogen) containing 10% by weight of fetal bovine serum, at 37° C. under 5% by volume of CO2, using trade name: Oligofectamine (manufactured by Invitrogen) according to the manufacturer's protocol. Transfected SK-N-SH cells were incubated at 37° C. for 60 hours without changing the medium.
In addition, SK-N-SH cells after the culturing were incubated in αMEM (manufactured by Invitrogen) containing 10% by weight of fetal bovine serum at 37° C. under 5% by volume of CO2, with or without 0.5 μM thapsigargin for 40 hours. […] Caspase-4 or β-actin was then detected with an ECL detection system (manufactured by Amersham-Pharmacia). […]

COc1cc([C@@H]2c3cc4c(cc3[C@@H](O[C@@H]3O[C@@H]5CO[C@@H](C)O[C@H]5[C@H](O)[C@H]3O)[C@H]3COC(=O)[C@H]23)OCO4)cc(OC)c1O [etoposide]
cleavage of pro-caspase-4 [1]: not cleaved

Aβ25-35: partial peptide of amyloid-β (GSNKGAIIGLM; Amyloid-beta protein 40; UniProt P05067 696-706, looked up, fragment)
cleavage of caspase-4 [2]: cleavage of caspase-4 was observed

tunicamycin
apoptotic nuclear morphological changes [3]: apoptotic nuclear morphological changes were induced | apoptotic nuclear morphological changes [4]: apoptotic nuclear morphological changes were induced | cleavage of pro-caspase-4 [1]: induced the cleavage of pro-caspase-4

C/C=C(/C)C(=O)O[C@H]1C(C)=C2[C@H]([C@@H]1OC(=O)CCCCCCC)[C@@](C)(OC(C)=O)C[C@H](OC(=O)CCC)[C@@]1(O)[C@H]2OC(=O)[C@@]1(C)O [thapsigargin]
cells resulting in death [5]: about 60% | cleavage of pro-caspase-4 [1]: induced the cleavage of pro-caspase-4

Aβ1-40: amyloid-β peptide 1-40
cleavage of caspase-4 [2]: cleavage of caspase-4 was observed

CN[C@@H]1C[C@H]2O[C@@](C)([C@@H]1OC)n1c3ccccc3c3c4c(c5c6ccccc6n2c5c31)C(=O)NC4 [staurosporine]
cleavage of pro-caspase-4 [1]: not cleaved
